Values quoted from earlier work in article PMC6277767, “Broad and Region-Specific Impacts of the Synthetic Cannabinoid CP 55,940 in Adolescent and Adult Female Mouse Brains” (Frontiers in Molecular Neuroscience, 2018).

What was measured:
BV-2 microglial cells = tested on: BV-2 microglial cells; parameters: method as in Rimmerman et al., 2012; conditions: ref Rimmerman et al., 2012; cited from earlier work
[1] = tested on: human peripheral blood mononuclear cells; parameters: method as in Bileck et al., 2016; conditions: 10 μM for 3 h; ref Bileck et al., 2016; cited from earlier work
DAGLα = tested on: DAGLα; parameters: method as in Ogasawara et al., 2016; conditions: reductions measured at 2 h and 4 h post-injection; ref Ogasawara et al., 2016; cited from earlier work
CB1 [2] = conditions: ref Brents et al., 2011; read-out: EC50, stimulated G-protein binding at CB1; cited from earlier work
CB1 [3] = tested on: CB1; parameters: method as in Felder et al., 1995; conditions: ref Felder et al., 1995; read-out: IC50, inhibition of adenylate cyclase at CB1; cited from earlier work
CB2 = tested on: CB2; parameters: method as in Felder et al., 1995; conditions: ref Felder et al., 1995; read-out: IC50, inhibition of adenylate cyclase at CB2; cited from earlier work
[4] = parameters: method as in Leishman et al., 2018; conditions: acute exposure, all age groups; ref Leishman et al., 2018; cited from earlier work

C=C(C)[C@@H]1CCC(C)=C[C@H]1c1c(O)cc(CCCCC)cc1O [CBD, cannabidiol]
levels of AEA (BV-2 microglial cells): increased

CCCCCCCC(C)(C)c1ccc([C@H]2CCC[C@@H](O)C2)c(O)c1 [CP 47,497-C8]
expression of 5-LOX compared to vehicle [1]: 26 fold | expression of fatty acid synthase [1]: over twofold

C#CCO[C@@H]1CC[C@H](Cc2ccccc2)N(C(=O)n2ncc(C(O)(c3ccc(F)cc3)c3ccc(F)cc3)n2)C1 [DH376]
time for reduced 2-AG, AA and AEA levels to return to baseline (DAGLα): ≤ 8 h

CCCCCc1cc(O)c2c(c1)OC(C)(C)[C@@H]1CCC(C)=C[C@@H]21 [THC, Δ^9-tetrahydrocannabinol]
EC50 (CB1 [2]): […] | IC50 (CB1 [3]): […] | IC50 (CB2): 41.8 nM | brain area with highest THC levels [4]: HIPP
